Assay results reported in article PMC9894184 (Proceedings of the National Academy of Sciences of the …, 2022).

Biological target: dFASN (FASN1), recombinant full-length (Drosophila melanogaster, UniProt B7Z001)
Experiment: NADPH oxidation FASN activity assay, Michaelis-Menten fit
Type: biochemical
Details: 240 µM NADPH, 58 µM malonyl-CoA fixed

dFASN (FASN1), recombinant full-length, sequence (B7Z001 1-2540): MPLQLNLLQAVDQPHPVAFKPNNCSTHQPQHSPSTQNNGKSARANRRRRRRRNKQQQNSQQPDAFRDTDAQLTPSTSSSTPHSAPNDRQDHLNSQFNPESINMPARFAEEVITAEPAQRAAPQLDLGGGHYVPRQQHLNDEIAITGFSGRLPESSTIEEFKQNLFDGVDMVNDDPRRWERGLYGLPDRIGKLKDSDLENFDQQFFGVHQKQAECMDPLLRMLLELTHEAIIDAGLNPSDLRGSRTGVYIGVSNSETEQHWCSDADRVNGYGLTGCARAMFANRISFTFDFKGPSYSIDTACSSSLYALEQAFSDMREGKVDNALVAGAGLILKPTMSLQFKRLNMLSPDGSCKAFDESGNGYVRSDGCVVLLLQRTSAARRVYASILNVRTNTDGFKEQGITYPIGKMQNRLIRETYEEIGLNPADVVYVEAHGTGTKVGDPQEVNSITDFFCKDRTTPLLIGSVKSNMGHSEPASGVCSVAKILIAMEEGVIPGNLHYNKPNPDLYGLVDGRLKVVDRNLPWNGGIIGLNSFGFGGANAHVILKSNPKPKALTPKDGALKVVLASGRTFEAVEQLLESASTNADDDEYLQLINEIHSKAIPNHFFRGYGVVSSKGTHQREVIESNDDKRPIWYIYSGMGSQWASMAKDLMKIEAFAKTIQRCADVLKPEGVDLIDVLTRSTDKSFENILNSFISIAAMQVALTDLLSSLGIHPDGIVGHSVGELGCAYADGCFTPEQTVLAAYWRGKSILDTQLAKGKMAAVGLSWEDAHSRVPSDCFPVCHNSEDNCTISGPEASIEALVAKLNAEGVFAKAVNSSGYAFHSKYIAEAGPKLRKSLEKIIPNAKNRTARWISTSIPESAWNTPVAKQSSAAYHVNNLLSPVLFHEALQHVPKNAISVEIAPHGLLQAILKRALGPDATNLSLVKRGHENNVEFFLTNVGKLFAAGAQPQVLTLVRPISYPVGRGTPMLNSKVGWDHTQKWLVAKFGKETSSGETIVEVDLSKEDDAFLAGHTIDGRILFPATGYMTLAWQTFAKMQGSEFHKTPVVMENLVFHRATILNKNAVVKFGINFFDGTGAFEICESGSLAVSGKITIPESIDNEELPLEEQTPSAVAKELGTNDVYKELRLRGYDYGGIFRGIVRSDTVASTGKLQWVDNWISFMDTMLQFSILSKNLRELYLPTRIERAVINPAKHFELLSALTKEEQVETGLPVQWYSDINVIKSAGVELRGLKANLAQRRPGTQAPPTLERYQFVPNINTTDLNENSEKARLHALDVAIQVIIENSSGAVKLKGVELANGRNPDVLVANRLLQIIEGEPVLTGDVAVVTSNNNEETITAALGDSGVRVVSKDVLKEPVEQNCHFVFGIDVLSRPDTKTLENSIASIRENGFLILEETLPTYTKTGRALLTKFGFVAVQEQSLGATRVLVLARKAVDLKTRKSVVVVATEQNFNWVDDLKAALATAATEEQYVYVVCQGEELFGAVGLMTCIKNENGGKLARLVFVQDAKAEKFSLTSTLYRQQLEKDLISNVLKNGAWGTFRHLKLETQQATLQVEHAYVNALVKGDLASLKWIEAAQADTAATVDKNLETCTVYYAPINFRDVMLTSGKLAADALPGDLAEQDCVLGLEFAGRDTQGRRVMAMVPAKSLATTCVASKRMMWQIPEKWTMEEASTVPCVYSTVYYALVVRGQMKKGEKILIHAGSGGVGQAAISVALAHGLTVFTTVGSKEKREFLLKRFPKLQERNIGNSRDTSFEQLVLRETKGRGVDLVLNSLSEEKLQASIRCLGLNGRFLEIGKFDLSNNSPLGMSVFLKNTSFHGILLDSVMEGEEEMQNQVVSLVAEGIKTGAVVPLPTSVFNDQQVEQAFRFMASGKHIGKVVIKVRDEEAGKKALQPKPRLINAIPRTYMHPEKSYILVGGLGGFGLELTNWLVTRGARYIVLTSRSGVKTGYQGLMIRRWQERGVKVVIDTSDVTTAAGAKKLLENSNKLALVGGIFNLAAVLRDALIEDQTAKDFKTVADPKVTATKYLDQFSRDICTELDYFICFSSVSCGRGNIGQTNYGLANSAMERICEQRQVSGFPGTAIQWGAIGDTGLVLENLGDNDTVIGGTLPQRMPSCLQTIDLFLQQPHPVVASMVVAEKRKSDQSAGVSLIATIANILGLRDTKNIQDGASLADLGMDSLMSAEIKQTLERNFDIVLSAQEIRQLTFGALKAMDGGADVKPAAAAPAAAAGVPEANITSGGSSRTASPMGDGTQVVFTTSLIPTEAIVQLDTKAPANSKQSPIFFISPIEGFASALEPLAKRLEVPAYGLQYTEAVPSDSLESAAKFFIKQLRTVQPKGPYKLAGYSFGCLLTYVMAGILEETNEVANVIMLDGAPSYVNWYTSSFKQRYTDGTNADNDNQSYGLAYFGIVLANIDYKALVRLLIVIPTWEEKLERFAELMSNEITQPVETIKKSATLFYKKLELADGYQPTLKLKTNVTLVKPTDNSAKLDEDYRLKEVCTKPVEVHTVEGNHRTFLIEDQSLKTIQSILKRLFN

**Q.** `CC(=O)SCCNC(=O)CCNC(=O)[C@H](O)C(C)(C)COP(=O)(O)OP(=O)(O)OC[C@H]1O[C@@H](n2cnc3c(N)ncnc32)[C@H](O)[C@@H]1OP(=O)(O)O` [acetyl-CoA] was tested. Which Km did it give?
**A.** Steady-state kinetics over AcCoA was also evaluated
